Laboratory results reported in patent US20160316791A1, “METHOD TO PROTECT LIPOPHILIC NUTRIENTS AGAINST RUMINAL DEGRADATION” (UNIVERSITEIT GENT, priority 2013, published 2016).

System: dairy cows
Assay: In vivo protection and transfer of t10c12-CLA to milk, milk fat content
Settings: 7 g per cow daily; FIG. 9
Experimental: Eight dairy cows in mid-lactation (100 to 220 days in milk, 562 to 712 kg live weight, minimum daily production of 20 to 25 kg milk) were used in a sequential set-up to test the in vivo protection of fatty acids and transfer to the milk. Two supplements were tested: First, a protected fatty acid emulsion, prepared according to Example 1, was administered (n=4). This product consisted of a protein extract from potato tuber peels, which was further used to emulsify a commercially available triacylglyceride mixture of cis-9, trans-11 and trans-10, cis-12 conjugated linoleic acid (t10c12-CLA) (TONALIN® TG80, BASF-AG, Ludwigshafen, Germany) and protected against rumen degradation through the creation of protein-phenol complexes by addition of 4-methylcatechol. The degree of rumen bypass of t10c12 CLA was assessed in vitro as described in Example 1 before the start of the in vivo trial. […]
The experimental period consisted of six weeks. […] Milk fat content was determined by Fourier Transform Infrared analysis (FTIR Delta Instruments, Drachten, The Netherlands) and fatty acids determined as described by Jorjong et al.^(19) Milk fat is presented as percentage of the total mass of milk produced per day and t10c12-CLA as g per 100 g of fatty acids detected.

CCCCC/C=C\C=C\CCCCCCCCC(=O)O [t10c12-CLA, trans-10, cis-12 conjugated linoleic acid]
transfer of dietary t10c12-CLA to the milk: up to 5%
